Results reported in PubChem BioAssay (NCI).
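Grown in 96-well plates, cells were treated for 48 hours with each compound at five concentrations. Insufficient inhibition: endpoint recorded as highest concentration tested. GI50 marks 50% less growth. TGI: total growth inhibition.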

Experiments:
Assay in all cases: NCI anticancer screen, dose series, 48 h
[1] = system: SK-MEL-28 melanoma
[2] = system: SF-539 CNS
[3] = system: PC-3 prostate
[4] = system: NCI-H460 lung
[5] = system: TK-10 renal
[6] = system: SF-268 CNS
[7] = system: SNB-19 CNS
[8] = system: HT29 colon
[9] = system: RPMI-8226 leukemia
[10] = system: OVCAR-4 ovarian
[11] = system: SK-OV-3 ovarian
[12] = system: SNB-75 CNS
[13] = system: COLO 205 colon
[14] = system: UO-31 renal
[15] = system: M14 melanoma
[16] = system: DU-145 prostate
[17] = system: UACC-257 melanoma
[18] = system: A549 NSCLC
[19] = system: HOP-62 NSCLC
[20] = system: KM12 colon
[21] = system: RXF 393 renal
[22] = system: HCT-116 colon
[23] = system: T-47D breast
[24] = system: U251 CNS
[25] = system: 786-0 renal
[26] = system: CCRF-CEM leukemia
[27] = system: MDA-MB-231 breast
[28] = system: SF-295 CNS
[29] = system: HL-60(TB) leukemia
[30] = system: OVCAR-5 ovarian
[31] = system: NCI-H522 lung
[32] = system: MDA-MB-435
[33] = system: OVCAR-3 ovarian
[34] = system: NCI/ADR-RES ovarian
[35] = system: OVCAR-8 ovarian
[36] = system: HS 578T breast
[37] = system: NCI-H226 lung
[38] = system: K-562 leukemia
[39] = system: SN12C renal
[40] = system: MCF7 breast
[41] = system: IGROV1 ovarian
[42] = system: NCI-H23 lung
[43] = system: SR leukemia
[44] = system: CAKI-1 renal
[45] = system: ACHN renal
[46] = system: SK-MEL-2 melanoma
[47] = system: SW-620 colon
[48] = system: MALME-3M melanoma
[49] = system: HCT-15 colon
[50] = system: EKVX NSCLC
[51] = system: UACC-62 melanoma
[52] = system: LOX IMVI melanoma
[53] = system: SK-MEL-5 melanoma
[54] = system: HOP-92 NSCLC
[55] = system: HCC-2998 colon

CC(O)CCc1ccc(Oc2c3ccccc3nc3occc23)cc1 (centres undefined)
GI50 [1]: 12.3 µM
TGI [1]: 25.1 µM
GI50 [2]: 13.9 µM
TGI [2]: 29.5 µM
GI50 [3]: 5.39 µM
TGI [3]: 21.7 µM
GI50 [4]: 4.02 µM
TGI [4]: 16.8 µM
GI50 [5]: 1220 nM
TGI [5]: 7.75 µM
GI50 [6]: 11 µM
TGI [6]: 29.6 µM
GI50 [7]: 13.5 µM
TGI [7]: 33 µM
GI50 [8]: 4.7 µM
TGI [8]: 18 µM
GI50 [9]: 4.91 µM
TGI [9]: > 100 µM
GI50 [10]: 5.08 µM
TGI [10]: 74 µM
GI50 [11]: 15.3 µM
TGI [11]: 31.8 µM
GI50 [12]: 9.86 µM
TGI [12]: 28.5 µM
GI50 [13]: 5.81 µM
TGI [13]: 24.1 µM
GI50 [14]: 14.2 µM
TGI [14]: > 100 µM
GI50 [15]: 5.54 µM
TGI [15]: 17.9 µM
GI50 [16]: 16.6 µM
TGI [16]: 32.2 µM
GI50 [17]: 3.7 µM
TGI [17]: 14.4 µM
GI50 [18]: 4.22 µM
TGI [18]: 17.6 µM
GI50 [19]: 17.8 µM
TGI [19]: 31.9 µM
GI50 [20]: 3.68 µM
TGI [20]: 19 µM
GI50 [21]: 3200 nM
TGI [21]: 8.89 µM
GI50 [22]: 2.95 µM
TGI [22]: 15.6 µM
GI50 [23]: 1280 nM
TGI [23]: 10.9 µM
GI50 [24]: 18.1 µM
TGI [24]: 33.8 µM
GI50 [25]: 9.8 µM
TGI [25]: 21.9 µM
GI50 [26]: 9.41 µM
TGI [26]: 34.8 µM
GI50 [27]: 16.6 µM
TGI [27]: > 100 µM
GI50 [28]: 4510 nM
TGI [28]: 17.1 µM
GI50 [29]: 1780 nM
TGI [29]: 9.69 µM
GI50 [30]: 11.9 µM
TGI [30]: 24.3 µM
GI50 [31]: 19.1 µM
TGI [31]: > 100 µM
GI50 [32]: 3.86 µM
TGI [32]: 15.6 µM
GI50 [33]: 4.4 µM
TGI [33]: 26.7 µM
GI50 [34]: 2700 nM
TGI [34]: 14.6 µM
GI50 [35]: 5.18 µM
TGI [35]: 19.6 µM
GI50 [36]: 20.4 µM
TGI [36]: 42.6 µM
GI50 [37]: 3.84 µM
TGI [37]: 16.8 µM
GI50 [38]: 4.18 µM
TGI [38]: 31.6 µM
GI50 [39]: 10.9 µM
TGI [39]: 24.2 µM
GI50 [40]: 3140 nM
TGI [40]: 9.27 µM
GI50 [41]: 17.7 µM
TGI [41]: 56.9 µM
GI50 [42]: 2410 nM
TGI [42]: 12 µM
GI50 [43]: 2890 nM
TGI [43]: 9.28 µM
GI50 [44]: 2.93 µM
TGI [44]: 13.5 µM

CCC(=O)OC1CCC2C3CCC(=O)OC3C(C)(CCC(=O)O)CC12C (centres undefined)
GI50 [1]: 3.81 µM
TGI [1]: > 100 µM
GI50 [45]: 4.74 µM
TGI [45]: > 100 µM
GI50 [2]: 2.1 µM
TGI [2]: 17.4 µM
GI50 [3]: 2.36 µM
TGI [3]: > 100 µM
GI50 [4]: 2.04 µM
TGI [4]: > 100 µM
GI50 [5]: 3460 nM
TGI [5]: 21.9 µM
GI50 [6]: 3.6 µM
TGI [6]: > 100 µM
GI50 [8]: 3.86 µM
TGI [8]: > 100 µM
GI50 [10]: 6.61 µM
TGI [10]: > 100 µM
GI50 [11]: 2.47 µM
TGI [11]: > 100 µM
GI50 [12]: 2.87 µM
TGI [12]: > 100 µM
GI50 [46]: 1860 nM
TGI [46]: > 100 µM
GI50 [13]: 3.48 µM
TGI [13]: 69.1 µM
GI50 [14]: 0.494 µM
TGI [14]: > 100 µM
GI50 [15]: 3.59 µM
TGI [15]: > 100 µM
GI50 [16]: 3.59 µM
TGI [16]: 19.1 µM
GI50 [17]: 5.73 µM
TGI [17]: > 100 µM
GI50 [18]: 3.81 µM
TGI [18]: > 100 µM
GI50 [47]: 2870 nM
TGI [47]: > 100 µM
GI50 [19]: 7.49 µM
TGI [19]: > 100 µM
GI50 [48]: 2760 nM
TGI [48]: > 100 µM
GI50 [49]: 2830 nM
TGI [49]: > 100 µM
GI50 [50]: 2080 nM
TGI [50]: > 100 µM
GI50 [20]: 2.59 µM
TGI [20]: > 100 µM
GI50 [21]: 617 nM
TGI [21]: > 100 µM
GI50 [51]: 3000 nM
TGI [51]: > 100 µM
GI50 [22]: 3.62 µM
TGI [22]: > 100 µM
GI50 [23]: 929 nM
TGI [23]: 6.16 µM
GI50 [24]: 3.11 µM
TGI [24]: 45.3 µM
GI50 [25]: 5.49 µM
TGI [25]: > 100 µM
GI50 [26]: 0.374 µM
TGI [26]: > 100 µM
GI50 [27]: 1.45 µM
TGI [27]: 6.28 µM
GI50 [28]: 1160 nM
TGI [28]: 2.68 µM
GI50 [52]: 3.87 µM
TGI [52]: > 100 µM
GI50 [30]: 5.6 µM
TGI [30]: > 100 µM
GI50 [31]: 2.08 µM
TGI [31]: > 100 µM
GI50 [32]: 2.24 µM
TGI [32]: 13.2 µM
GI50 [33]: 2.16 µM
TGI [33]: 10.5 µM
GI50 [53]: 3.9 µM
TGI [53]: > 100 µM
GI50 [34]: 2540 nM
TGI [34]: > 100 µM
GI50 [35]: 3.49 µM
TGI [35]: > 100 µM
GI50 [36]: 1.63 µM
TGI [36]: 7.93 µM
GI50 [40]: 1610 nM
TGI [40]: > 100 µM
GI50 [41]: 2.47 µM
TGI [41]: 16.2 µM
GI50 [42]: 3350 nM
TGI [42]: > 100 µM
GI50 [54]: 997 nM
TGI [54]: 4.76 µM
GI50 [55]: 3.53 µM
TGI [55]: > 100 µM
GI50 [44]: 3.22 µM
TGI [44]: 15.9 µM
